Results published in article PMC4661406, “Uncovering the Mechanism of Aggregation of Human Transthyretin” (The Journal of Biological Chemistry, 2015).
Where a SMILES comes first, the peptide text is derived from it. [ ]: non-standard residue; d: D form. NMeE = CN[C@@H](CCC(=O)O)C(=O)O; NMeA = CN[C@@H](C)C(=O)O

Tests used:
[1] = biological target: T1, monomeric variant MTTR (Homo sapiens, UniProt P02766, F107M/L130M); test: Binding of inhibitors to MTTR (unbound fraction by HPLC-MS); conditions: apparent affinity for all MTTR species in solution (binding to aggregated species not excluded), 0.5 mg/ml MTTR with increasing combined R4PAm and R4PTm, 37 °C, 18 h, 10 mM sodium acetate pH 7.4, 100 mM KCl, 10 mM EDTA, one-site specific binding (GraphPad Prism 6), read-out: apparent binding constant (KD)
T1 construct: made in house; host or cells: Escherichia coli Rosetta(DE3) pLysS, pET24(+) vector
Procedure: The soluble unbound fraction of inhibitors after incubation with the monomeric variant MTTR ([40]) was quantified by HPLC-MS. Samples were made as follows. Soluble TTR at a fixed concentration of 0.5 mg/ml was incubated at 37 °C for 18 h in 10 mM sodium acetate (pH 7.4), 100 mM KCl, 10 mM EDTA with increasing quantities of combined R4PAm and R4PTm. The aggregated fraction was removed by 0.22-μm filtration. The protein fraction containing soluble TTR and inhibitor-bound complexes was then removed by acid precipitation with 1% acetic acid and consecutive ultracentrifugation at 90,000 rpm for 30 min. Neither 0.22-μm filtration nor acid precipitation affected the concentration of the unbound soluble fraction of the peptide inhibitors (data not shown). The unbound soluble fraction of inhibitors was subjected to size exclusion HPLC followed by mass spectrometry. […]
(§1) FIGURE 6. […] A, midpoint temperatures of the thermal unfolding transition (Tm) of wild-type TTR at different conditions were determined by differential scanning calorimetry. […] The unbound fraction of inhibitors was analyzed by HPLC-MS. […] TTR aggregation (TTR agg.) was measured by absorbance at 400 nm with the initial protein amount normalized to 100%. mAU, milli-absorbance units; N.A., not applicable. […]

[2] = test system: WT TTR; test: Differential scanning calorimetry of WT TTR with T4 and/or inhibitors; type: binding, human; conditions: versus WT TTR alone (no T4 before addition); 5:1 molar ratio to TTR monomer; 3.5 M guanidinium chloride, pH 4.3
Procedure: Data were taken with a DSC-II differential scanning calorimeter (Calorimetry Sciences Corp., Lindon, UT). The midpoint temperatures of the thermal unfolding transition (Tm) of wild type and mutants were determined. Thermal denaturation of TTR was irreversible under our conditions ([1], [38]), and absolute thermodynamic parameters were not determined. […] The experiments were performed in 3.5 M guanidinium hydrochloride to depress melting below 100 °C; this guanidinium concentration also solubilized thyroxine. Protein samples were thawed on ice and filtered, and the concentration was measured by UV-visible absorption. Protein samples were diluted to 1 mg/ml in 3.5 M guanidinium chloride, 100 mM sodium acetate (pH 4.3), 100 mM potassium chloride, 1 mM EDTA. A volume of 700 μl of each protein sample was prepared in a 1.5-ml microcentrifuge tube and degassed for 5 min under vacuum while stirring. The reference cell contained only buffer components. […]
as §1

[3] = Fibril formation of TTR peptides in isolation (TEM); type: physicochemical; conditions: PBS pH 7.4, 37 °C, no shaking; TEM after 7 days (methods: incubated 2 weeks); peptide concentration 0.5-17 mM
Procedure: Following dissolution, samples were filtered through a 0.2-μm filter and incubated at 37 °C with no shaking for 2 weeks.
TEM was performed to visualize the fibril formation of TTR proteins and peptides. 5 μl of the sample was spotted onto freshly glow-discharged, carbon-coated EM grids (Ted Pella, Redding, CA). After 3 min of incubation, grids were rinsed three times with 5 μl of distilled water and then stained with 2% uranyl acetate for 2 min. Grids were examined with a T12 Quick CryoEM and CryoET (FEI) transmission electron microscope at an accelerating voltage of 120 kV. Digital images were recorded using a Gatan 2,048 × 2,048 charge-coupled device camera.
FIGURE 2. β-Strand F as an aggregation-driving segment in TTR suitable for aggregation inhibitor design. […] Histograms show percentage of TTR aggregation using WT TTR to normalize to 100%. The aggregation was measured by absorbance of the samples at 400 nm after 4 days of incubation at 37 °C and pH 4.3 with no shaking. […]
FIGURE 3. β-Strand H as a second aggregation-driving segment suitable as a target for aggregation inhibitor design. A, residue solvent-accessible surface area (ASA; Å^2) of TTR was calculated by Areaimol using the structure of WT TTR in three different conformations: tetramer (blue), dimer (black), and monomer (green). […]

[4] = test system: transthyretin amyloidosis; conditions: background statement, refs 16-18 cited in the next sentence; cited from earlier work
Description: Currently, there is no cure for transthyretin amyloidosis, and the treatment for familial cases of ATTR is liver transplantation. […] Several other therapeutics are currently in clinical trials, including other tetramer stabilizers such as diflunisal and RNAi therapies that cause a decrease in the production of TTR protein ([16][–][18]). Additional approaches are needed to prevent ATTR, and here we explore the use of peptide inhibitors that block aggregation of TTR.

Row | Compound | Kd [1] | fibril formation in isolation [3] | also measured
1 | CC(C)[C@H](NC(=O)[C@@H](NC(=O)[C@H](C)N(C)C(=O)[C@@H](NC(=O)[C@@H](NC(=O)[C@H](CO)NC(=O)[C@H](Cc1ccc(O)cc1)NC(=O)[C@H](CO)NC(=O)[C@H](Cc1ccc(O)cc1)NC(=O)[C@@H]1CCCN1C(=O)[C@H](CCCNC(=N)N)NC(=O)[C@H](CCCNC(=N)N)NC(=O)[C@H](CCCNC(=N)N)NC(=O)[C@@H](N)CCCNC(=N)N)[C@@H](C)O)[C@@H](C)O)C(C)C)C(=O)N[C@H](C(=O)N[C@@H](CC(N)=O)C(=O)O)[C@@H](C)O [R4PTm] (H-RRRRPYSYSTT[NMeA]VVTN-OH) | 19.3 ± 6.7 µM |  | 
2 | NC(Cc1cc(I)c(Oc2cc(I)c(O)c(I)c2)c(I)c1)C(=O)O (stereo not drawn) [T4, thyroxine] |  |  | increase in Tm of WT TTR on addition [2]: 10.8 °C
3 | TAVVTN [6-residue TTR segment 119-124 from strand H] |  | form fibrils in solution by self-aggregation | 
4 | CC(C)[C@H](NC(=O)[C@@H](NC(=O)[C@H](CCC(=O)O)N(C)C(=O)[C@H](C)NC(=O)[C@H](Cc1c[nH]cn1)NC(=O)[C@H](CCC(=O)O)NC(=O)[C@H](Cc1c[nH]cn1)NC(=O)[C@H](Cc1ccccc1)NC(=O)[C@@H]1CCCN1C(=O)[C@H](CCCNC(=N)N)NC(=O)[C@H](CCCNC(=N)N)NC(=O)[C@H](CCCNC(=N)N)NC(=O)[C@@H](N)CCCNC(=N)N)C(C)C)C(=O)N[C@@H](Cc1ccccc1)C(=O)N[C@H](C(=O)N[C@@H](C)C(=O)O)[C@@H](C)O [R4PAm] (H-RRRRPFHEHA[NMeE]VVFTA-OH) | 17.9 ± 6.1 µM |  | 
5 | AEVVFT [6-residue TTR segment 91-96 from strand F] |  | form fibrils in solution by self-aggregation | 
6 | O=C(O)c1ccc2nc(-c3cc(Cl)cc(Cl)c3)oc2c1 [Tafamidis] |  |  | disease progression [4]: delays progression of the disease
